# Columns and labels:
# [1] = target: T1, Muscarinic acetylcholine receptor M3 (Homo sapiens, UniProt P20309); assay: biochemical; type: cell-based, HEK-293T
# Target sequence in this assay (P20309 whole entry): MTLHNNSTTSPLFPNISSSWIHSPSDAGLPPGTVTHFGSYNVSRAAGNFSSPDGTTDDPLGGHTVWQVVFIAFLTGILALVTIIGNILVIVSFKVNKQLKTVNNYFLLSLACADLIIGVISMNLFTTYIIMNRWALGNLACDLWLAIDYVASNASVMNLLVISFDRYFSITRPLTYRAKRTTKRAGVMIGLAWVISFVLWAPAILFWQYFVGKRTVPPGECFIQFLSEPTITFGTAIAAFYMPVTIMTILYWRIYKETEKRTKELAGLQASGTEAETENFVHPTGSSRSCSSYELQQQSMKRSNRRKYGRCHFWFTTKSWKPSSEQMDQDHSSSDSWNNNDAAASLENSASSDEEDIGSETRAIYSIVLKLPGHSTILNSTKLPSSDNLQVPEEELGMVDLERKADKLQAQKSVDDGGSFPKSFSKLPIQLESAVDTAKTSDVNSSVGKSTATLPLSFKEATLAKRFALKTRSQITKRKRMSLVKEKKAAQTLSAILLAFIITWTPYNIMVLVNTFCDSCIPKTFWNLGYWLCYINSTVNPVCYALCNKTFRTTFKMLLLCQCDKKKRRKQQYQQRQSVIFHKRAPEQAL
# Description: Binding affinity to wild type human M3 receptor expressed in HEK293T cells up to 24 hrs by radioligand displacement assay
# [2] = tested on: Muscarinic acetylcholine receptor M3 (Homo sapiens), P20309 [E220A]; settings: HEK-293T
# [3] = tested on: Muscarinic acetylcholine receptor M3 (Homo sapiens), P20309 [E228A]; settings: HEK-293T
# [4] = tested on: Muscarinic acetylcholine receptor M3 (Homo sapiens), P20309 [K213A]; settings: HEK-293T
# [5] = tested on: Muscarinic acetylcholine receptor M3 (Homo sapiens), P20309 [F225A]; settings: HEK-293T
# [6] = tested on: Muscarinic acetylcholine receptor M3 (Homo sapiens), P20309 [K523A]; settings: HEK-293T
# [7] = tested on: Muscarinic acetylcholine receptor M3 (Homo sapiens), P20309 [Q224A]; settings: HEK-293T
# [8] = tested on: Muscarinic acetylcholine receptor M3 (Homo sapiens), P20309 [F222A]; settings: HEK-293T
# [9] = tested on: Muscarinic acetylcholine receptor M3 (Homo sapiens), P20309 [D518A]; settings: HEK-293T
# [10] = tested on: Muscarinic acetylcholine receptor M3 (Homo sapiens), P20309 [R133A]; settings: HEK-293T
# [11] = target: T1, Muscarinic acetylcholine receptor M3; settings: HEK-293T
# Target sequence in this assay (P20309 whole entry, looked up): as the sequence (P20309 whole entry) above
# Description: Binding affinity to wild type human M3 receptor expressed in HEK293T cells assessed as half life by radioligand displacement assay
# Chain of Muscarinic acetylcholine receptor M3 (Homo sapiens), P20309 [E220A] (P20309 whole entry E220A): as the sequence (P20309 whole entry) above, with E220A counted along it
# Chain of Muscarinic acetylcholine receptor M3 (Homo sapiens), P20309 [F222A] (P20309 whole entry F222A): as the sequence (P20309 whole entry) above, with F222A counted along it
# Chain of Muscarinic acetylcholine receptor M3 (Homo sapiens), P20309 [F225A] (P20309 whole entry F225A): as the sequence (P20309 whole entry) above, with F225A counted along it
# Chain of Muscarinic acetylcholine receptor M3 (Homo sapiens), P20309 [E228A] (P20309 whole entry E228A): as the sequence (P20309 whole entry) above, with E228A counted along it
# Chain of Muscarinic acetylcholine receptor M3 (Homo sapiens), P20309 [Q224A] (P20309 whole entry Q224A): as the sequence (P20309 whole entry) above, with Q224A counted along it
# Chain of Muscarinic acetylcholine receptor M3 (Homo sapiens), P20309 [D518A] (P20309 whole entry D518A): as the sequence (P20309 whole entry) above, with D518A counted along it
# Chain of Muscarinic acetylcholine receptor M3 (Homo sapiens), P20309 [K213A] (P20309 whole entry K213A): as the sequence (P20309 whole entry) above, with K213A counted along it
# Chain of Muscarinic acetylcholine receptor M3 (Homo sapiens), P20309 [R133A] (P20309 whole entry R133A): as the sequence (P20309 whole entry) above, with R133A counted along it
# Chain of Muscarinic acetylcholine receptor M3 (Homo sapiens), P20309 [K523A] (P20309 whole entry K523A): as the sequence (P20309 whole entry) above, with K523A counted along it
smiles,measurement,setting,value
C[N+]1(C)[C@@H]2C[C@H](OC(=O)C(CO)(c3cccs3)c3cccs3)C[C@H]1[C@@H]1O[C@@H]12,Ki,[1],0.316 nM
CC(C(=O)O[C@H]1C[C@@H]2[C@H]3O[C@H]3[C@H](C1)[N+]2(C)C)(c1cccs1)c1cccs1,Ki,[1],0.0501 nM
COC(C(=O)O[C@H]1C[C@@H]2[C@H]3O[C@H]3[C@H](C1)[N+]2(C)C)(c1cccs1)c1cccs1,Ki,[1],1.58 nM
C[N+]1(C)[C@@H]2C[C@H](OC(=O)C(O)c3cccs3)C[C@H]1[C@@H]1O[C@@H]12 (stereo partly specified),Ki,[1],5.01 nM
C[N+]1(C)[C@@H]2C[C@H](OC(=O)C(O)(c3ccccc3)c3ccccc3)C[C@H]1[C@@H]1O[C@@H]12,Ki,[1],0.0631 nM
C[N+]1(C)[C@@H]2C[C@H](OC(=O)C(O)c3ccccc3)C[C@H]1[C@@H]1O[C@@H]12 (stereo partly specified),Ki,[1],2 nM
C[N+]1(C)[C@@H]2C[C@@H](OC(=O)C(O)(c3cccs3)c3cccs3)C[C@H]1[C@@H]1O[C@@H]12,T1/2,[2],31.7 h
same,T1/2,[3],20.1 h
same,T1/2,[4],20.4 h
same,T1/2,[5],13.8 h
same,T1/2,[6],12.5 h
same,T1/2,[7],12.4 h
same,T1/2,[8],23 h
same,T1/2,[9],22.6 h
same,T1/2,[10],25.4 h
same,T1/2,[11],24.5 h

# Source: ChEMBL document CHEMBL3091362, “Molecular basis for the long duration of action and kinetic selectivity of tiotropium for the muscarinic M3 receptor” (J Med Chem, 2013)
